Measured values taken from patent US20130345312A1, “TREATMENT OF MITOCHONDRIAL DISEASES WITH NAPHTHOQUINONES” (priority 2010, published 2013).

Experiments:
Format in all cases: cell-based
[1] = system: Huntington's cells (Coriell GM 04281); test: Rescue of fibroblasts from Huntington's patients from oxidative stress (screen as in Example A); details: Fibroblast, human dermal fibroblasts from Huntington's patients, read-out: protection against Huntington's, EC50
Experimental: Compounds of the invention were tested using the screen as described in Example A, but substituting FRDA cells with Huntington's cells obtained from the Coriell Cell Repositories (Camden, N.J.; repository number GM 04281). The compounds were tested for their ability to rescue human dermal fibroblasts from Huntington's patients from oxidative stress.

[2] = system: Leber's Hereditary Optic Neuropathy (LHON) cells (Coriell GM03858); test: Rescue of fibroblasts from Leber's Hereditary Optic Neuropathy patients from oxidative stress (screen as in Example A); details: Fibroblast, human dermal fibroblasts from LHON patients, read-out: protection against LHON, EC50
Experimental: Compounds of the invention were screened as described in Example A, but substituting FRDA cells with Leber's Hereditary Optic Neuropathy (LHON) cells obtained from the Coriell Cell Repositories (Camden, N.J.; repository number GM03858). The compounds were tested for their ability to rescue human dermal fibroblasts from LHON patients from oxidative stress.

[3] = system: FRDA fibroblasts (Coriell GM04078); test: Rescue of BSO-stressed human dermal fibroblasts from Friedreich's ataxia patients (Calcein AM viability); details: FRDA fibroblasts stressed with 1 mM BSO, 48 h, Calcein AM fluorescence, read-out: protection against FRDA, EC50
Experimental: Test samples and solvent controls were tested for their ability to rescue FRDA fibroblasts stressed by addition of L-buthionine-(S,R)-sulfoximine (BSO), as described in Jauslin et al., Hum. Mol. Genet. 11(24):3055 (2002), Jauslin et al., FASEB J. 17:1972-4 (2003), and International Patent Application WO 2004/003565. […] This specific BSO-mediated cell death can be prevented by administration of antioxidants or molecules involved in the antioxidant pathway, such as alpha-tocopherol, selenium, or small molecule glutathione peroxidase mimetics. However, antioxidants differ in their potency, i.e. the concentration at which they are able to rescue BSO-stressed FRDA fibroblasts. MEM (a medium enriched in amino acids and vitamins, catalog no. 1-31F24-I) and Medium 199 (M199, catalog no. 1-21F22-I) with Earle's Balanced Salts, without phenol red, were purchased from Bioconcept. Fetal Calf Serum was obtained from PAA Laboratories. Basic fibroblast growth factor and epidermal growth factor were purchased from PeproTech. Penicillin-streptomycin-glutamine mix, L-buthionine (S,R)-sulfoximine, and insulin from bovine pancreas were purchased from Sigma. Calcein AM was purchased from Molecular Probes. Cell culture medium was made by combining 125 ml M199 EBS, 50 ml Fetal Calf Serum, 100 U/ml penicillin, 100 μg/ml streptomycin, 2 mM glutamine, 10 μg/ml insulin, 10 ng/ml EGF, and 10 ng/ml bFGF; MEM EBS was added to make the volume up to 500 ml. A 10 mM BSO solution was prepared by dissolving 444 mg BSO in 200 ml of medium with subsequent filter-sterilization. During the course of the experiments, this solution was stored at +4° C. The cells were obtained from the Coriell Cell Repositories (Camden, N.J.; repository number GM04078) and grown in 10 cm tissue culture plates. Every third day, they were split at a 1:3 ratio. The test samples were supplied in 1.5 ml glass vials. The compounds were diluted with DMSO, ethanol or PBS to result in a 5 mM stock solution. Once dissolved, they were stored at −20° C. Test samples were screened according to the following protocol: A culture with FRDA fibroblasts was started from a 1 ml vial with approximately 500,000 cells stored in liquid nitrogen. Cells were propagated in 10 cm cell culture dishes by splitting every third day in a ratio of 1:3 until nine plates were available. Once confluent, fibroblasts were harvested. For 54 micro titer plates (96 well-MTP) a total of 14.3 million cells (passage eight) were re-suspended in 480 ml medium, corresponding to 100 μL medium with 3,000 cells/well. The remaining cells were distributed in 10 cm cell culture plates (500,000 cells/plate) for propagation. The plates were incubated overnight at 37° C. in a atmosphere with 95% humidity and 5% CO2 to allow attachment of the cells to the culture plate. MTP medium (243 μL) was added to a well of the microtiter plate. The test compounds were unfrozen and 7.5 μL of a 5 mM stock solution was dissolved in the well containing 243 μL medium, resulting in a 150 μM master solution. Serial dilutions from the master solution were made. The period between the single dilution steps was kept as short as possible (generally less than 1 second). Plates were kept overnight in the cell culture incubator. The next day, 10 μL of a 10 mM BSO solution were added to the wells, resulting in a 1 mM final BSO concentration. Forty-eight hours later, three plates were examined under a phase-contrast microscope to verify that the cells in the 0% control (wells E1-H1) were clearly dead. The medium from all plates was discarded, and the remaining liquid was removed by gently tapping the plate inversed onto a paper towel. 100 μl of PBS containing 1.2 μM Calcein AM were then added to each well. The plates were incubated for 50-70 minutes at room temperature. After that time the PBS was discarded, the plate gently tapped on a paper towel and fluorescence (excitation/emission wavelengths of 485 nm and 525 nm, respectively) was read on a Gemini fluorescence reader. […]

[4] = system: cells obtained from CoQ10 deficient patients harboring a CoQ2 mutation; test: Rescue of fibroblasts from CoQ10 deficient patients from oxidative stress (screen similar to Example A); details: Fibroblast, human dermal fibroblasts from CoQ10 deficient patients (CoQ2 mutation), read-out: protection against CoQ10 deficiency, EC50
Experimental: Compounds of the invention were tested using a screen similar to the one described in Example A, but substituting FRDA cells with cells obtained from CoQ10 deficient patients harboring a CoQ2 mutation. The compounds were tested for their ability to rescue human dermal fibroblasts from CoQ10 deficient patients from oxidative stress.

[5] = system: Parkinson's disease (PD) cells (Coriell AG20439); test: Rescue of fibroblasts from Parkinson's disease patients from oxidative stress (screen as in Example A); details: Fibroblast, human dermal fibroblasts from Parkinson's disease patients, read-out: protection against PD, EC50
Experimental: Compounds of the invention were screened as described in Example A, but substituting FRDA cells with Parkinson's disease (PD) cells obtained from the Coriell Cell Repositories (Camden, N.J.; repository number AG20439). The compounds were tested for their ability to rescue human dermal fibroblasts from Parkinson's disease patients from oxidative stress.

COC1=C(OC)C(=O)c2ccccc2C1=O [2,3-dimethoxynaphthalene-1,4-dione]
EC50 [1]: < 150 nM | EC50 [2]: < 150 nM | EC50 [3]: < 100 nM | EC50 [4]: < 100 nM

CCCCC1=C(C)C(=O)c2ccccc2C1=O [2-butyl-3-methylnaphthalene-1,4-dione]
EC50 [1]: < 150 nM | EC50 [5]: < 200 nM | EC50 [2]: < 150 nM | EC50 [3]: < 100 nM | EC50 [4]: < 100 nM

O=C1C=CC(=O)c2ccccc21 [naphthalene-1,4-dione]
EC50 [1]: < 150 nM | EC50 [5]: < 200 nM | EC50 [2]: < 150 nM | EC50 [3]: < 100 nM

COC1=CC(=O)c2ccccc2C1=O [2-methoxynaphthalene-1,4-dione]
EC50 [1]: < 150 nM | EC50 [2]: < 150 nM | EC50 [3]: < 100 nM | EC50 [4]: < 100 nM

CC1=C(C)C(=O)c2ccccc2C1=O [2,3-dimethylnaphthalene-1,4-dione]
EC50 [1]: < 150 nM | EC50 [5]: < 200 nM | EC50 [2]: < 150 nM | EC50 [3]: < 100 nM | EC50 [4]: < 100 nM

CCCCCCC1=C(C)C(=O)c2ccccc2C1=O [2-hexyl-3-methylnaphthalene-1,4-dione]
EC50 [1]: < 150 nM | EC50 [5]: < 200 nM | EC50 [2]: < 150 nM | EC50 [3]: < 100 nM | EC50 [4]: < 100 nM
